System: extracellular matrix (ECM) bound FGF
Experiment: Release of extracellular matrix (ECM) bound FGF
Assay type: biochemical
Procedure: The polymers were tested according to the method of Vlodavsky [Vlodavsky, I., Bar-Shavit, R., Korner, G., and Foks, Z., Extracellular matrix-bound growth factors, enzymes, and plasma proteins, in Molecular and cellular aspects of basement membrane, Academic Press, 327-343 (1993)]. Release of ECM bound bFGF was low (15%) at the concentration range between 1 and 25 mg/ml for N-acryl-4-hydroxyproline based polymers. Under the same conditions, heparin released about 80% of the ECM bound bFGF at a concentration of 2 to 25 mg/ml.

heparin
released extracellular matrix (ECM) bound FGF: 80% | Release of ECM bound bFGF (concentration of 2 to 25 mg/ml): about 80%

From US5630978A, “Preparation of biologically active molecules by molecular imprinting” (Yissum Research Development Co. of The Hebrew University of …, priority 1995, dated 1997)
